Values after ≈ are worked out from the molar mass of the structure shown. Like-named read-outs stand apart in the source and are kept apart here.
Assays:
[1] = system: Aspergillus fumigatus from a chicken; assay: MIC, serial microdilution with INT; format: cell-based; conditions: Aspergillus fumigatus, read-out: Minimum inhibitory concentration
Text: (§1) The cultures used were Escherichia coli (American Type Culture Collection, ATCC 25922) labelled as 1, E. coli isolates (B1989/17 and B1962/17) labelled as 2 and 3 from equine urine, collected from the Department of Veterinary Tropical Diseases, Faculty of Veterinary Science, University of Pretoria, South Africa, Klebsiella pneumoniae isolate from commercial chicken eggs, Enterococcus faecalis (ATCC 29212), Pseudomonas aeruginosa (ATCC 27853), Staphylococcus aureus (ATCC 29213), Candida albicans from a Gouldian finch, Aspergillus fumigatus from a chicken and Cryptococcus neoformans from a cheetah. These microbial strains were maintained on MHA or SDA for bacteria and fungi respectively, while the isolates were maintained on blood agar.
(§2) Ten mg/mL of each fraction and 1 mg/mL of isolated compounds were prepared in 10% DMSO and tested against S. aureus, E. coli, K. pneumoniae, E. faecalis, P. aeruginosa, C. albicans, C. neoformans and A. fumigatus. Cultures were prepared by inoculating each microbial strain from prepared agar plates into sterilized MHB for bacterial and SDB for fungi in sterile McCartney bottles respectively. The inoculums were placed in an orbital shaker incubator. Bacterial strains were incubated at 37 °C for 18 h. Each bacterial culture was diluted in fresh MHB and the absorbance was measured at a wavelength of 560 nm using a microplate reader (Epoch Biotek). The readings were compared to a McFarland standard No. 1 correlating to approximately 3 × 10^8 cfu/mL). For fungi strains, cultures were incubated at 30 °C for 24 h (C. albicans), 72 h (C. neoformans) and 120 h (A. fumigatus) respectively. The resultant cells and spores were washed with sterile normal saline and absorbance was measured at a wavelength of 560 nm and turbidity was adjusted to a McFarland standard 1.This was further diluted in a 1:10 ratio in SDB to a turbidity of 5 × 10^5 cfu/mL. These diluted cultures (bacterial and fungi) were used for the screening following the serial microdilution method of Eloff.

[2] = system: Cryptococcus neoformans from a cheetah; assay: MIC, serial microdilution with INT; format: cell-based; conditions: C. neoformans, read-out: Minimum inhibitory concentration
Text: as §1, §2

[3] = system: E. coli (B1962/17) isolate from equine urine, E. coli (3); assay: MIC, serial microdilution with INT; format: cell-based; conditions: Escherichia coli, read-out: Minimum inhibitory concentration
Text: as §1, §2

[4] = system: E. coli (B1989/17) isolate from equine urine, E. coli (2); assay: MIC, serial microdilution with INT; format: cell-based; conditions: Escherichia coli, read-out: Minimum inhibitory concentration
Text: as §1, §2

[5] = system: Escherichia coli (ATCC 25922), E. coli (1); assay: MIC, serial microdilution with INT; format: cell-based; conditions: Escherichia coli, ATCC25922, E. coli (1), read-out: Minimum inhibitory concentration
Text: as §1, §2

[6] = system: Klebsiella pneumoniae isolate from commercial chicken eggs; assay: MIC, serial microdilution with INT; format: cell-based; conditions: Klebsiella pneumoniae, K. pneumoniae; read-out: Minimum inhibitory concentration
Text: as §1, §2

[7] = system: Staphylococcus aureus (ATCC 29213); assay: MIC, serial microdilution with INT; format: cell-based; conditions: ATCC29213, S. aureus, read-out: Minimum inhibitory concentration
Text: as §1, §2

[8] = system: S. aureus, E. coli (1), E. coli (2), E. coli (3), K. pneumoniae; assay: Mean MIC over the bacterial strains; format: cell-based; conditions: mean over the five bacterial strains of Table 3
Text: as §1, §2

[9] = system: E. coli; assay: Metabolic activity inhibition (INT); format: cell-based, Escherichia coli
Experimental: The ability of the isolated compounds to inhibit the bacterial metabolic activity was tested against E. coli and S. aureus following the method used by Ramage and Lopez-Ribot with slight modification. The organisms were inoculated in a 96-well microplate following the same biofilm assay procedure described above. The final concentration of each compound in the wells was 0.016 mg/mL, 0.031 mg/mL, 0.063 mg/mL, 0.125 mg/mL and 1 mg/mL respectively. After 24 h of incubation with samples, the plates were washed three times with sterile distilled water and 50 μL of 1 mg/mL INT was added to each well and further incubated in the dark for 2 h. After incubation, absorbance was read at 490 nm using a microplate reader and the percentages of reduction of bacterial metabolic activity in the presence of different concentrations of compounds were calculated using the formula:
percentage inhibiton=mean of culture control−mean of sample/mean of culture controlx100

[10] = system: Vero monkey kidney cells; assay: in vitro; conditions: Vero
Experimental: Different concentrations of the compounds ranging from 0.003 to 0.2 mg/mL were tested for cytotoxicity against three cell lines; Vero monkey kidney, C3A and Caco2. Vero cells were grown and maintained in MEM, supplemented with 0.1% gentamicin and 5% foetal calf serum, while Caco2 and C3A cells were grown and maintained in DMEM supplemented with 10% foetal calf serum, 1% non-essential amino acids and 1% penicillin-streptomycin. All cells were incubated in a 5% CO2 incubator at 37 °C. Doxorubicin chloride was used as positive control while 10% DMSO used in dissolving the test samples was used as the negative control. The 3-(4,5-dimethylthiazol)-2,5-diphenyl tetrazolium bromide (MTT) assay described by Mosmann with modification by McGaw et al. was used to determine the cytotoxicity of the test samples. The lethal concentration (LC50) value was calculated as the concentration of tested sample resulting in a 50% reduction of absorbance compared to untreated cells. Selectivity index (SI) values were calculated against the MIC using the formula: […]

SMILES	MIC ([1]; 48 h) [µg/mL]	MIC ([1]; 72 h) [µg/mL]	MIC ([1]; 120 h) [µg/mL]	MIC ([2]; 48 h, 48 h) [µg/mL]	MIC ([2]; 72 h, 72 h) [µg/mL]	MIC [3] [µg/mL]	MIC [4] [µg/mL]	MIC [5] [µg/mL]	MIC [6] [µg/mL]	MIC [7] [µg/mL]	MIC [8] [µg/mL]	Metabolic activity inhibition (verdict in words) [9]	Selectivity index (LC50/MIC) ([10]; E. coli (1))	Selectivity index (LC50/MIC) ([10]; E. coli (2))	Selectivity index (LC50/MIC) ([10]; E. coli (3))	Selectivity index (LC50/MIC) ([10]; K. pneumoniae)	Selectivity index (LC50/MIC) ([10]; S. aureus)	also measured
COc1ccc(-c2oc3cc(OC)cc(O)c3c(=O)c2OC)cc1 [Compound 3, 5-hydroxy-3,7,4′-trimethoxyflavone]	31 (≈ 94.4 µM)	250 (≈ 761 µM)	> 2500	> 250	> 250	250 (≈ 761 µM)	250 (≈ 761 µM)	63 (≈ 192 µM)	125 (≈ 381 µM)	16 (≈ 48.7 µM)	140 (≈ 426 µM)	good	3.127	0.788	0.788	1.576	12.313	Selectivity index (LC50/MIC) ([10]; A. fumigatus 48 h): 6.355
COc1ccc(C2CC(=O)c3c(OC)cc(OC)cc3O2)cc1 (racemic) [Compound 2, (±)-4′,5,7-trimethoxy flavanone]	16 (≈ 50.9 µM)	125 (≈ 398 µM)	> 2500	16 (≈ 50.9 µM)	125 (≈ 398 µM)	31 (≈ 98.6 µM)	31 (≈ 98.6 µM)	31 (≈ 98.6 µM)	125 (≈ 398 µM)	31 (≈ 98.6 µM)	50 ± 40 (≈ 159 µM)	good	6.515	6.452	6.452	1.616	6.516	Mean MIC [8]: 50 µg/mL; Selectivity index (LC50/MIC) ([10]; C. neoformans 48 h): 12.625; Selectivity index (LC50/MIC) ([10]; C. neoformans 72 h): 1.616

Reference: article PMC7376718, “Flavonoids isolated from the South African weed Chromolaena odorata (Asteraceae) have pharmacological activity against uropathogens” (BMC Complementary Medicine and Therapies, 2020)
